# In patent US20230123334A1, “AMINO LIPID COMPOUND, PREPARATION METHOD THEREFOR, AND APPLICATION THEREOF” (SHENZHEN SHENXIN BIOTECHNOLOGY CO., LTD., priority 2020, published 2023):
# Test system: HEK293 cells
# Assay: Preliminary screening as DNA vectors, GFP transfection of HEK293 cells
# Format: cell-based
# Details: HEK293 cells; lipid/DOPE liposome with 75 ng plasmid DNA (psin-EGFP-IRES-Puro); number of cells expressing GFP divided by total number of nuclei (Hoechst)
# Outline: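 Lipid + DOPE liposomes (NaOAc, pH 5.6) complexed w/ 75 ng psin-EGFP-IRES-Puro, 30 min RT; added to 3-5×10^4 HEK293/well, 37° C. Hoechst 0.2 μg/mL at 20-24 h, imaged after further 20-24 h. Efficiency = GFP+ cells / total nuclei.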
row,SMILES,Absolute DNA transfection efficiency in HEK293 cells
1,CCCCCCCCCCCCCCCCNc1nc(NCCCCCC)nc(NCCN(CC)CC)n1 [Compound N6N16D7],0.0%
2,CCCCCCCCCCCCCCCCNc1nc(NCCCCCC)nc(NCCCN2CCOCC2)n1 [Compound N6N16D8],0.6%
3,CCCCCCCCCCCCCCCCNc1nc(NCCCCCC)nc(NCCCN2CCN(C)CC2)n1 [Compound N6N16D9],0.0%
4,CCCCCCCCCCCCCCCCNc1nc(NCCCCCC)nc(NCC2CCN(C)CC2)n1 [Compound N6N16D10],0.7%
5,CCCCCCCCCCCCCCCCCCNc1nc(NCCCCCC)nc(NCCN(C)C)n1 [Compound N6N18D1],1.1%
6,CCCCCCCCCCCCCCCCCCNc1nc(NCCCCCC)nc(NCCN2CCOCC2)n1 [Compound N6N18D2],0.6%
7,CCCCCCCCCCCCCCCCCCNc1nc(NCCCCCC)nc(NCCN2CCCC2)n1 [Compound N6N18D3],3.4%
8,CCCCCCCCCCCCCCCCCCNc1nc(NCCCCCC)nc(NCCN2CCCCC2)n1 [Compound N6N18D4],2.0%
9,CCCCCCCCCCCCCCCCCCNc1nc(NCCCCCC)nc(NCCN2CCN(C)CC2)n1 [Compound N6N18D5],0.6%
10,CCCCCCCCCCCCCCCCCCNc1nc(NCCCCCC)nc(NCCCN(C)C)n1 [Compound N6N18D6],1.8%
11,CCCCCCCCCCCCCCCCCCNc1nc(NCCCCCC)nc(NCCN(CC)CC)n1 [Compound N6N18D7],0.9%
12,CCCCCCCCCCCCCCCCCCNc1nc(NCCCCCC)nc(NCCCN2CCOCC2)n1 [Compound N6N18D8],0.3%
13,CCCCCCCCCCCCCCCCCCNc1nc(NCCCCCC)nc(NCCCN2CCN(C)CC2)n1 [Compound N6N18D9],0.1%
14,CCCCCCCCCCCCCCCCCCNc1nc(NCCCCCC)nc(NCC2CCN(C)CC2)n1 [Compound N6N18D10],0.4%
15,CCCCCCCNc1nc(NCCCCCCC)nc(NCCN(C)C)n1 [Compound N7N7D1],0.0%
16,CCCCCCCNc1nc(NCCCCCCC)nc(NCCN2CCOCC2)n1 [Compound N7N7D2],0.0%
17,CCCCCCCNc1nc(NCCCCCCC)nc(NCCN2CCCC2)n1 [Compound N7N7D3],0.0%
18,CCCCCCCNc1nc(NCCCCCCC)nc(NCCN2CCCCC2)n1 [Compound N7N7D4],0.0%
19,CCCCCCCNc1nc(NCCCCCCC)nc(NCCN2CCN(C)CC2)n1 [Compound N7N7D5],0.0%
20,CCCCCCCNc1nc(NCCCCCCC)nc(NCCCN(C)C)n1 [Compound N7N7D6],0.0%
21,CCCCCCCNc1nc(NCCCCCCC)nc(NCCN(CC)CC)n1 [Compound N7N7D7],0.0%
22,CCCCCCCNc1nc(NCCCCCCC)nc(NCCCN2CCOCC2)n1 [Compound N7N7D8],0.0%

row,SMILES,Absolute DNA transfection efficiency in HEK293 cells
1,CCCCCCCNc1nc(NCCCCCCC)nc(NCCCN2CCN(C)CC2)n1 [Compound N7N7D9],0.0%
2,CCCCCCCNc1nc(NCCCCCCC)nc(NCC2CCN(C)CC2)n1 [Compound N7N7D10],0.1%
3,CCCCCCCCNc1nc(NCCCCCCC)nc(NCCN(C)C)n1 [Compound N7N8D1],0.2%
4,CCCCCCCCNc1nc(NCCCCCCC)nc(NCCN2CCOCC2)n1 [Compound N7N8D2],0.0%
5,CCCCCCCCNc1nc(NCCCCCCC)nc(NCCN2CCCC2)n1 [Compound N7N8D3],0.5%
6,CCCCCCCCNc1nc(NCCCCCCC)nc(NCCN2CCCCC2)n1 [Compound N7N8D4],0.2%
7,CCCCCCCCNc1nc(NCCCCCCC)nc(NCCN2CCN(C)CC2)n1 [Compound N7N8D5],0.0%
8,CCCCCCCCNc1nc(NCCCCCCC)nc(NCCCN(C)C)n1 [Compound N7N8D6],0.0%
9,CCCCCCCCNc1nc(NCCCCCCC)nc(NCCN(CC)CC)n1 [Compound N7N8D7],0.0%
10,CCCCCCCCNc1nc(NCCCCCCC)nc(NCCCN2CCOCC2)n1 [Compound N7N8D8],0.0%
11,CCCCCCCCNc1nc(NCCCCCCC)nc(NCCCN2CCN(C)CC2)n1 [Compound N7N8D9],0.7%
12,CCCCCCCCNc1nc(NCCCCCCC)nc(NCC2CCN(C)CC2)n1 [Compound N7N8D10],0.0%
13,CCCCCCCCCNc1nc(NCCCCCCC)nc(NCCN(C)C)n1 [Compound N7N9D1],0.6%
14,CCCCCCCCCNc1nc(NCCCCCCC)nc(NCCN2CCOCC2)n1 [Compound N7N9D2],0.0%
15,CCCCCCCCCNc1nc(NCCCCCCC)nc(NCCN2CCCC2)n1 [Compound N7N9D3],0.0%
16,CCCCCCCCCNc1nc(NCCCCCCC)nc(NCCN2CCCCC2)n1 [Compound N7N9D4],0.0%
17,CCCCCCCCCNc1nc(NCCCCCCC)nc(NCCN2CCN(C)CC2)n1 [Compound N7N9D5],0.0%
18,CCCCCCCCCNc1nc(NCCCCCCC)nc(NCCCN(C)C)n1 [Compound N7N9D6],0.0%
19,CCCCCCCCCNc1nc(NCCCCCCC)nc(NCCN(CC)CC)n1 [Compound N7N9D7],0.0%
20,CCCCCCCCCNc1nc(NCCCCCCC)nc(NCCCN2CCOCC2)n1 [Compound N7N9D8],0.0%
21,CCCCCCCCCNc1nc(NCCCCCCC)nc(NCCCN2CCN(C)CC2)n1 [Compound N7N9D9],0.7%
22,CCCCCCCCCNc1nc(NCCCCCCC)nc(NCC2CCN(C)CC2)n1 [Compound N7N9D10],0.4%

# Test system: HEK293 cells
# Assay: Preliminary screening as mRNA vectors, EGFP mRNA transfection of HEK293 cells
# Format: cell-based
# Details: HEK293 cells, 96-well plates, EGFP mRNA 50 ng per well; percentage of GFP fluorescent cells relative to total number of cells (Hoechst)
# Outline: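 Each well of HEK293 cells received 50 ng of EGFP mRNA. Efficiency was expressed as percent GFP-expressing cells over Hoechst-defined total cell number.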
row,SMILES,Absolute mRNA transfection efficiency in HEK293 cells
1,CCCCCCCCCCCCCCCCNc1nc(NCCCCCC)nc(NCCN(CC)CC)n1 [Compound N6N16D7],0.5%
2,CCCCCCCCCCCCCCCCNc1nc(NCCCCCC)nc(NCCCN2CCOCC2)n1 [Compound N6N16D8],0.0%
3,CCCCCCCCCCCCCCCCNc1nc(NCCCCCC)nc(NCCCN2CCN(C)CC2)n1 [Compound N6N16D9],0.0%
4,CCCCCCCCCCCCCCCCNc1nc(NCCCCCC)nc(NCC2CCN(C)CC2)n1 [Compound N6N16D10],0.8%
5,CCCCCCCCCCCCCCCCCCNc1nc(NCCCCCC)nc(NCCN(C)C)n1 [Compound N6N18D1],3.9%
6,CCCCCCCCCCCCCCCCCCNc1nc(NCCCCCC)nc(NCCN2CCOCC2)n1 [Compound N6N18D2],0.9%
7,CCCCCCCCCCCCCCCCCCNc1nc(NCCCCCC)nc(NCCN2CCCC2)n1 [Compound N6N18D3],3.9%
8,CCCCCCCCCCCCCCCCCCNc1nc(NCCCCCC)nc(NCCN2CCCCC2)n1 [Compound N6N18D4],0.2%
9,CCCCCCCCCCCCCCCCCCNc1nc(NCCCCCC)nc(NCCN2CCN(C)CC2)n1 [Compound N6N18D5],0.0%
10,CCCCCCCCCCCCCCCCCCNc1nc(NCCCCCC)nc(NCCCN(C)C)n1 [Compound N6N18D6],0.1%
11,CCCCCCCCCCCCCCCCCCNc1nc(NCCCCCC)nc(NCCN(CC)CC)n1 [Compound N6N18D7],0.3%
12,CCCCCCCCCCCCCCCCCCNc1nc(NCCCCCC)nc(NCCCN2CCOCC2)n1 [Compound N6N18D8],0.0%
13,CCCCCCCCCCCCCCCCCCNc1nc(NCCCCCC)nc(NCCCN2CCN(C)CC2)n1 [Compound N6N18D9],0.2%
14,CCCCCCCCCCCCCCCCCCNc1nc(NCCCCCC)nc(NCC2CCN(C)CC2)n1 [Compound N6N18D10],0.1%
15,CCCCCCCNc1nc(NCCCCCCC)nc(NCCN(C)C)n1 [Compound N7N7D1],0.0%
16,CCCCCCCNc1nc(NCCCCCCC)nc(NCCN2CCOCC2)n1 [Compound N7N7D2],0.0%
17,CCCCCCCNc1nc(NCCCCCCC)nc(NCCN2CCCC2)n1 [Compound N7N7D3],0.0%
18,CCCCCCCNc1nc(NCCCCCCC)nc(NCCN2CCCCC2)n1 [Compound N7N7D4],0.0%
19,CCCCCCCNc1nc(NCCCCCCC)nc(NCCN2CCN(C)CC2)n1 [Compound N7N7D5],0.5%
20,CCCCCCCNc1nc(NCCCCCCC)nc(NCCCN(C)C)n1 [Compound N7N7D6],0.0%
21,CCCCCCCNc1nc(NCCCCCCC)nc(NCCN(CC)CC)n1 [Compound N7N7D7],0.0%
22,CCCCCCCNc1nc(NCCCCCCC)nc(NCCCN2CCOCC2)n1 [Compound N7N7D8],0.0%

row,SMILES,Absolute mRNA transfection efficiency in HEK293 cells
1,CCCCCCCNc1nc(NCCCCCCC)nc(NCCCN2CCN(C)CC2)n1 [Compound N7N7D9],0.0%
2,CCCCCCCNc1nc(NCCCCCCC)nc(NCC2CCN(C)CC2)n1 [Compound N7N7D10],0.0%
3,CCCCCCCCNc1nc(NCCCCCCC)nc(NCCN(C)C)n1 [Compound N7N8D1],0.0%
4,CCCCCCCCNc1nc(NCCCCCCC)nc(NCCN2CCOCC2)n1 [Compound N7N8D2],0.3%
5,CCCCCCCCNc1nc(NCCCCCCC)nc(NCCN2CCCC2)n1 [Compound N7N8D3],3.7%
6,CCCCCCCCNc1nc(NCCCCCCC)nc(NCCN2CCCCC2)n1 [Compound N7N8D4],0.0%
7,CCCCCCCCNc1nc(NCCCCCCC)nc(NCCN2CCN(C)CC2)n1 [Compound N7N8D5],0.0%
8,CCCCCCCCNc1nc(NCCCCCCC)nc(NCCCN(C)C)n1 [Compound N7N8D6],0.0%
9,CCCCCCCCNc1nc(NCCCCCCC)nc(NCCN(CC)CC)n1 [Compound N7N8D7],0.0%
10,CCCCCCCCNc1nc(NCCCCCCC)nc(NCCCN2CCOCC2)n1 [Compound N7N8D8],0.0%
11,CCCCCCCCNc1nc(NCCCCCCC)nc(NCCCN2CCN(C)CC2)n1 [Compound N7N8D9],0.2%
12,CCCCCCCCNc1nc(NCCCCCCC)nc(NCC2CCN(C)CC2)n1 [Compound N7N8D10],0.6%
13,CCCCCCCCCNc1nc(NCCCCCCC)nc(NCCN(C)C)n1 [Compound N7N9D1],0.0%
14,CCCCCCCCCNc1nc(NCCCCCCC)nc(NCCN2CCOCC2)n1 [Compound N7N9D2],0.0%
15,CCCCCCCCCNc1nc(NCCCCCCC)nc(NCCN2CCCC2)n1 [Compound N7N9D3],0.1%
16,CCCCCCCCCNc1nc(NCCCCCCC)nc(NCCN2CCCCC2)n1 [Compound N7N9D4],0.0%
17,CCCCCCCCCNc1nc(NCCCCCCC)nc(NCCN2CCN(C)CC2)n1 [Compound N7N9D5],0.2%
18,CCCCCCCCCNc1nc(NCCCCCCC)nc(NCCCN(C)C)n1 [Compound N7N9D6],0.0%
19,CCCCCCCCCNc1nc(NCCCCCCC)nc(NCCN(CC)CC)n1 [Compound N7N9D7],0.0%
20,CCCCCCCCCNc1nc(NCCCCCCC)nc(NCCCN2CCOCC2)n1 [Compound N7N9D8],0.0%
21,CCCCCCCCCNc1nc(NCCCCCCC)nc(NCCCN2CCN(C)CC2)n1 [Compound N7N9D9],0.0%
22,CCCCCCCCCNc1nc(NCCCCCCC)nc(NCC2CCN(C)CC2)n1 [Compound N7N9D10],0.1%
